The subject of data set [1] is Rat. As to the kind of experiment: Reduction in tetrabenazine-induced ptosis. Type of data set: in vivo. As to conditions: po, read-out: Effective dose: 50% reduction in tetrabenazine-induced ptosis. The procedure: (§1) All tests were carried out under identical conditions according to standard testing methods. The animal species used, the route of administering the material to be tested, the type of test and the results obtained are shown in Table I hereunder.

Data set [2] deals with Mouse. As to the kind of experiment: Reduction of 5HTP-induced head twitches. Type of data set: in vivo. The conditions noted are these: sc, read-out: Effective dose: 50% reduction of 5HTP-induced head twitches. The procedure:
as §1

Data set [3] has as its system Mouse. Put plainly: Doubling of hexobarbitone sodium sleeping time (CNS activity). As to conditions: po, read-out: Effective dose: Double hexobarbitone sodium sleeping time. Type of data set: in vivo. How it is done:
as §1

For a further data set, the system named is conscious cats. As to the kind of experiment: Behavioural observation in conscious cats. Type of data set: in vivo, cat.
For data set [4], the system named is Mouse. Put plainly: Inhibition of heat-induced tail flick. Type of data set: in vivo. The conditions noted are these: po, read-out: Effective dose: 50% inhibition of heat-induced tail flick. The procedure: as §1
The subject of data set [5] is Mouse. As to the kind of experiment: Doubling of ethanol sleeping time (CNS activity). Type of data set: in vivo. As to conditions: po, read-out: Effective dose: Double ethanol sleeping time. How it is done: as §1
Data set [6] has as its system Mouse. Put plainly: Reduction in exploratory behaviour. Type of data set: in vivo. The conditions noted are these: po, read-out: Effective dose: 50% reduction in exploratory behaviour. How it is done: as §1
Data set [7] concerns Rat. As to the kind of experiment: Doubling of chloralhydrate sleeping time (CNS activity). Type of data set: in vivo. As to conditions: po, read-out: Effective dose: Double chloralhydrate sleeping time. How it is done:
as §1

In data set [8] the test system is Mouse. As to the kind of experiment: Inhibition of acetic acid-induced writhing. As to conditions: po, read-out: Effective dose: 50% inhibition of acetic acid-induced writhing. The data set is classed as in vivo. The procedure:
as §1
On the technique in general: Writhing tests count abdominal constrictions after an irritant is injected.

The next data set concerns α2 -adrenoceptors. Put plainly: Adrenoceptor activity, α2. As to conditions: summary statement.
Data set [9] deals with extra-cellular calcium controlled α1s -adrenoceptors. Put plainly: Adrenoceptor activity, α1s. The conditions noted are these: summary statement.
Data set [10] concerns adrenaline vasopressor effect. Put plainly: Adrenaline antagonism (adrenaline reversal) in anaesthetised cats. The conditions noted are these: adrenaline i.v., 5 to 10 mg/kg b.w. intraduodenally. The data set is classed as in vivo, cat. The source says:
Experimental hypertension was induced in anaesthetised cats by administering (i.v.) adrenaline.

The nature of data set [11]: Antihypertensive activity in nephrogenic GOLDBLATT hypertensive rats. Type of data set: in vivo, rat. The conditions noted are these: in vivo, po; GOLDBLATT hypertensive rats, p.o.; LD50 rat p.o.; read-out: therapeutic index LD50 /ED50. How it is done:
(§2) Antihypertensive activities for Sgd 101/75 of the invention and Sgd 230/75 of U.S. Pat. No. 4,036,976 were determined with nephrogenic GOLDBLATT hypertensive rats.

For data set [12], the system named is nephrogenic GOLDBLATT hypertensive rats. The data set is described as above. The data set is classed as in vivo, rat. The conditions noted are these: for ED50: Rattus norvegicus, po, nephrogenic GOLDBLATT hypertensive rats. How it is done:
as §2

A short description of another data set: Toxicity LD50 in mouse. As to conditions: in vivo. The procedure:
(§3) Toxicity values were determined applying identical standard methods. The data obtained are listed herebelow in Table II showing LD50 values as mg/kg body weight.

The nature of data set [13]: Blood-brain barrier penetration. The conditions noted are these: summary statement.
The test system of data set [14] is drug-metabolising enzymes in the liver. As to the kind of experiment: Induction of drug-metabolising enzymes in the liver. The conditions noted are these: summary statement.
Another data set has as its system α1 -adrenoceptors. Put plainly: Adrenoceptor activity, α1. The conditions noted are these: summary statement.
The next data set in a line: Toxicity LD50 in rat. The conditions noted are these: in vivo. The procedure:
as §3

Data set [15] has as its system genetically fixed hypertension rats. The conditions noted are these: p.o., prior art background; cited from earlier work.

Where two headings read alike, the source gives them in different places.

Take `Clc1cccc(Cl)c1N=C1NCCN1` [Clonidine, 2-((2,6-dichloro-phenyl)-imino)-imidazolidine, reference compound]: the ED50 came out at 0.3 mg/kg with Rat [1] (Rat, p.o.); 0.028 mg/kg in the data set on Mouse [2]; 5 mg/kg in the data set on Mouse [4]; 0.12 mg/kg in the data set with Mouse [6]; 0.07 mg/kg in the data set with Mouse [8]. Besides, the ED (2-fold sleeping time) with Mouse [3] stood at 0.3 mg/kg; in the data set with Mouse [5], 0.02 mg/kg; with Rat [7], 0.05 mg/kg. Further, the “Behavioural changes / CNS depression” value with conscious cats (1 mg/kg i.p.) was “signs of CNS depression”.
Consider `Cn1cc2c(NC3=NCCN3)cccc2n1` [Sgd 101/75, 4-(2-imidazolin-2-yl-amino)-2-methyl-indazole], for which the ED50 in the data set with Rat [1] (Rattus norvegicus) is 33 mg/kg; in data set [12], 4.2 mg/kg; in the data set on Mouse [2], 28 mg/kg; in the data set with Mouse [4], greater than 100 mg/kg; with Mouse [6] it was 72 mg/kg; in the data set on Mouse [8] it was 4.5 mg/kg. The “Activity on α2 -adrenoceptors” value in the data set with α2 -adrenoceptors is given as “complete antagonist”. For the same compound, the “Activity on α1s -adrenoceptors” value in [9] is “complete and highly specific agonist”. In [10], the “Effect on adrenaline vasopressor effect (adrenaline reversal)” value is given as “conversion of the vasopressor effect of adrenaline into a depressor response”. In data set [11], the selectivity ratio was determined as 767. Moreover, the “anti-hypertensive activity relative to the prior art compound” value in data set [12] (relative to Sgd 230/75, taking into account LD50 values (rat, p.o.)) is “about 190%”. Moreover, the ED (2-fold sleeping time) with Mouse [3], in the data set on Mouse [5] and in the data set on Rat [7] was greater than 100 mg/kg each time. Further, the LD50 (as a rule, the dose expected to kill half of the subjects tested) stood at 58 mg/kg in “Toxicity LD50 in mouse” (iv), 3900 mg/kg in the data set “Toxicity LD50 in mouse” (po), 69 mg/kg in “Toxicity LD50 in rat” (iv) and 3220 mg/kg in “Toxicity LD50 in rat” (po). Also, the “Penetration of the blood-brain barrier” value in data set [13] was “does not readily penetrate the blood-brain barrier”. For the same compound, in the data set on conscious cats (4 and 10 mg/kg i.p.), the “Behavioural changes / CNS depression” value is “no apparent behavioural changes”. In addition, in data set [14], the “Induction of drug-metabolising enzymes in the liver” value is on record as “does not induce drug-metabolising enzymes in the liver”. Further, the “Activity on α1 -adrenoceptors” value in the data set with α1 -adrenoceptors is on record as “partial agonist”.
Consider `Cn1ncc2c(NC3=NCCN3)cccc21` [Sgd 230/75, 4-(2-imidazolin-2-yl-amino)-1-methyl-indazole, reference compound], for which, in data set [11], the selectivity ratio came out at 400. This compound also displayed an ED50 in [12] of 3 mg/kg. Moreover, the LD50 in “Toxicity LD50 in mouse” (iv) amounted to 22 mg/kg; in the data set “Toxicity LD50 in mouse” (po) it was 600 mg/kg; in “Toxicity LD50 in rat” (iv) it was 90 mg/kg; in the data set “Toxicity LD50 in rat” (po), 1200 mg/kg. Moreover, the “therapeutic index LD50 /ED50” value in [15] is 800.

Source of the values: patent US4526898A, “Antihypertensive 4-(2-imidazolin-2-yl-amino)-2-methyl-indazole” (priority 1983, dated 1985).
